Counter-ions that a name gives are not always drawn. Like-named read-outs stand apart in the source and are kept apart here.
Key:
STZ/HFD rat = test: Blood glucose determination in the STZ/HFD rat model of Type 2 diabetes; format: in vivo; conditions: STZ/HFD rat model, oral compound administration (30 mg/kg)
Description: Blood Glucose Determination in the STZ/HFD Rat Model of Type 2 Diabetes
Representative compounds were also profiled in genetically normal rats given a high-fat diet followed by treatment with a low dose of streptozotocin (STZ/HFD). This treatment regimen recreates both the insulin resistance and the hyperglycemia seen in human Type 2 diabetes. Male CD rats (Jackson Labs, Bar Harbor Me.) were maintained according to NIH guidelines, housed two per cage, and fed either standard lab chow (Tekland Laboratory Diets, James Grain, San Jose, Calif.) or the same chow supplemented with chocolate bars, cookies, and potato chips such that their final diet contained 30% fat by weight (high-fat diet; HFD). After two weeks of this diet, the animals were given an injection of freshly-prepared streptozotocin (35 mg/kg, i.p.) and continued on the HFD. Animals that achieved glucose levels of 190 to 380 mg/dl were used in this study. At the end of the 12-hour light/dark cycle, and just prior to the experiment, the animals were moved to new cages with no food available until 4 hours after treatment. The compound or vehicle (PBS) was given p.o. by gavage, and blood was sampled by approved IACUC protocol using tail cap method. Glucose was determined using the Glucometer Elite (Bayer, Elkhart, Ind.).
The reduction was maximal (20%) 4 hours after the administration of Compound 15.

human insulin receptor = target: T1, human insulin receptor (Homo sapiens, UniProt P06213); test: Whole-cell phosphorylation assay (3T3HIR cells); format: cell-based; conditions: 15 min, anti-phosphotyrosine Western, various concentrations (FIG. 2)
T1 construct: expressed in transfected cells; host or cells: NIH 3T3 (3T3HIR)
Method: Whole-cell Phosphorylation Assay:
The initial step in insulin signaling is phosphorylation of the insulin receptor in response to insulin binding. NIH 3T3 cells overexpressing human insulin receptor (3T3HIR) were grown for 2 days at a density of 2×10^5/ml cells in 6 well culture dishes in DMEM with 10% FBS and L-glutamine. Prior to the experiment the cells were serum-starved overnight with DMEM with 0.1% BSA. The following morning, the cells were washed with PBS and the medium was replaced with 150 mM NaCl, 1.7 mM KCl, 0.9 mM CaCl2, K2HPO4 (pH 7.4), to which were added either the experimental compounds, or their vehicle (DMSO). Insulin or its vehicle (0.01% BSA) was diluted in the assay buffer (containing test compound or vehicle, respectively) to a final concentration of 2.5 nM. After incubating for 15 min, the cells were washed with cold PBS twice and lysed in 50 mM Tris.HCl, pH 7.4 150 mM NaCl, 0.25% sodium deoxycholate, 1% NP-40, 1 mM EGTA, 1 mM PMSF, 1 mM Na3VO4, 1 mM NaF, 1 ug/ml each of Aprotinin, Leupeptin and Pepstatin. The cell lysates were clarified by centrifugation at 12000 rpm, and the supernatants were estimated for protein concentration. Total cell lysate ([…]) was boiled with 2× SDS-PAGE sample buffer for 3 min and loaded into 7.5% SDS-PAGE along with Amersham rainbow marker protein as a molecular weight standard. […]

[1] = target: T2, β-kinase domain of the human insulin receptor (CKD) (Homo sapiens, UniProt P06213); test: 32P-cytoplasmic kinase domain (CKD) autophosphorylation assay; format: biochemical; conditions: phosphorylation of CKD expressed as % of the vehicle level; 10 minutes at room temperature; compound concentration not given
T2 construct: The complete β-kinase domain of the human insulin receptor (CKD) was expressed in, and purified from, baculovirus; made in house
Method: ^32P-cytoplasmic Kinase Domain (CKD) Autophosphorylation Assay The insulin signaling pathway is activated through stimulation of the insulin receptor. A major component of this activation is the phosphorylation of a specific portion of the receptor called the β-kinase domain. The complete β-kinase domain of the human insulin receptor (CKD) was expressed in, and purified from, baculovirus. CKD (4.0μg/ml), in a solution of 29 mM HEPES (pH 7.6), 0.05% Triton X-100, 10 mM MgCl2, 2 mM MnCl2 (50 μl final volume), was combined with 50 μM ATP, and 5 μCi ^32P-ATP (3000Ci/mmol.). A test compound, or the vehicle (dimethyl sulfoxide (DMSO)) was added to a final DMSO concentration of 1%. The mixture was incubated for 10 minutes at room temperature. The reaction was terminated by the addition of 10 μl 200 mM EDTA. A 30 μl volume was removed, mixed with 5 μl of 6× Laemmeli sodium dodecyl sulfate (SDS) treatment buffer, and heated to 94° C. for 5 minutes. A 20 μl aliquot was then run an SDS-PAGE gel. The radioactivity incorporated into the CKD band was quantified by phosphorimaging of the gel, or scintillation counting of the excised bands. The potency of a compound for increasing phosphorylation was expressed as % of the vehicle level.

3T3 L1 fibroblasts = test: Glucose transport activity assay (14C-2-deoxy-D-glucose uptake); format: cell-based; conditions: for EC (150% of vehicle control): EC (effective concentration) for increase in glucose transport, 14C-2-deoxy-D-glucose, 3T3 L1 cells, read-out: Concentration (μM) to reach >150% activity of vehicle control
Summary of the method: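 Differentiated 3T3 L1 adipocytes (IBMX/dexamethasone/insulin induction), serum-starved overnight, preincubated 30 min at 37 °C with compound ± insulin in pH 7.4 salt buffer, then 30 min with 5 μCi/ml 14C-2-deoxy-D-glucose. Lysate radioactivity counted; EC = concentration raising uptake above 150% of vehicle control.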

3T3 L1 adipocytes = test: Effect of Wortmannin and Cytochalasin on glucose uptake; format: cell-based; conditions: Cytochalasin B 10 μM; stimulation by Compound 15 alone or Compound 15 plus 5.6 nM insulin
Method: Effect of Wortmannin and Cytochalasin on Glucose Uptake:
The glucose transport pathway stimulated by insulin involves activation of PI3 Kinase. Wortmannin is a selective inhibitor of PI3 Kinase and inhibits insulin-stimulated glucose transport. 3T3 L1 adipocytes were pretreated with 100 nM Wortmannin and stimulated with the compounds in the presence or absence of insulin. […] Insulin-stimulated glucose transport is mediated by glucose transporter proteins. Cytochalasin B is an inhibitor of glucose transporters and inhibits insulin-stimulated glucose uptake.

T2 sequence (P06213 980-1382 limits assumed): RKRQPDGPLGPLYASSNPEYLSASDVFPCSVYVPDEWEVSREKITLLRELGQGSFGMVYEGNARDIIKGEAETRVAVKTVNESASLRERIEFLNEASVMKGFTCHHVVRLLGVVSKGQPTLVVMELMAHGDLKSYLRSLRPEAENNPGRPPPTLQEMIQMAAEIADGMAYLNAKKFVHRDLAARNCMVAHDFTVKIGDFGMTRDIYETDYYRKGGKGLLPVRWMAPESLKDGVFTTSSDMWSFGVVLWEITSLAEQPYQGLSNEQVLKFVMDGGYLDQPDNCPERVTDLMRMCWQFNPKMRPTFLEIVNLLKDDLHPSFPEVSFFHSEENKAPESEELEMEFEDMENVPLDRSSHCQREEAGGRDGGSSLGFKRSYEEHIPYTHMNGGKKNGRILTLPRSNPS
T1 sequence (P06213 763-1382 limits assumed): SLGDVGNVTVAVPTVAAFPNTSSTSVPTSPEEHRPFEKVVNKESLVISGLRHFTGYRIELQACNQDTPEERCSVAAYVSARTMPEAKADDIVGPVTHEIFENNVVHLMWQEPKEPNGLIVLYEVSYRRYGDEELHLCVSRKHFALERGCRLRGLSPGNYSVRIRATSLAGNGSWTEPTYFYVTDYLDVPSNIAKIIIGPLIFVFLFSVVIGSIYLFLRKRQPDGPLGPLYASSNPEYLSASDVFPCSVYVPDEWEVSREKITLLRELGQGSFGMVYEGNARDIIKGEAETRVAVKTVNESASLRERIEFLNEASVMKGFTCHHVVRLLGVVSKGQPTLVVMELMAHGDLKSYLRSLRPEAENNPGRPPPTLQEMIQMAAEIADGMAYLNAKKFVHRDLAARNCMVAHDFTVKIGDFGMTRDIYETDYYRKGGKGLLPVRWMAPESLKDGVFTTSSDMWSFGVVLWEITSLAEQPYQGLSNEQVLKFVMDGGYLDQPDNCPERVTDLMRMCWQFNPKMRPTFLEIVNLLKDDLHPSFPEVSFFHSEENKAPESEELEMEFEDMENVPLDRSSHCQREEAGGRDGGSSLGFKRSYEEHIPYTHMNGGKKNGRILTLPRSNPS
T1 sequence (P06213 28-758 partner limits assumed): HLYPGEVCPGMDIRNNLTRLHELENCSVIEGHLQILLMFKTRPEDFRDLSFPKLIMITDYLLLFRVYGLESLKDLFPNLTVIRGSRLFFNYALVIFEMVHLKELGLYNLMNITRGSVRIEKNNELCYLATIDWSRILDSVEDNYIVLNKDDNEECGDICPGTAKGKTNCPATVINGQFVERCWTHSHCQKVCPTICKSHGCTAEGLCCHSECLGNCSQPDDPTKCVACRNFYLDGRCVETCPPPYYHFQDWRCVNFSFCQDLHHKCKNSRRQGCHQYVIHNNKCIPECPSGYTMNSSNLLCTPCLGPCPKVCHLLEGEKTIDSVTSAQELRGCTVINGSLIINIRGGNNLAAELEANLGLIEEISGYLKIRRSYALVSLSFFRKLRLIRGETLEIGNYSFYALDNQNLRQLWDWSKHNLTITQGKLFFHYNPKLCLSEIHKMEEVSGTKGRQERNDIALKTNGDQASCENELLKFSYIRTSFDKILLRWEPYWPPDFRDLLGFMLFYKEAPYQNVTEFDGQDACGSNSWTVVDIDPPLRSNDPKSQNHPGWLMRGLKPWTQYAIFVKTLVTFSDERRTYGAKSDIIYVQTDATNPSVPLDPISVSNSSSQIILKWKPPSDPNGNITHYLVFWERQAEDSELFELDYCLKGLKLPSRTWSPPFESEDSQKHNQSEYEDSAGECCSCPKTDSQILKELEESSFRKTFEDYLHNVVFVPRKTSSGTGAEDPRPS

Row | % Activity vs. Control [1] [%] | Structure (SMILES) | % Reduction in Blood Glucose (maximal reduction) (STZ/HFD rat) [%] | Time (h) at which maximal reduction in blood glucose occurred (STZ/HFD rat) [h] | EC (150% of vehicle control) (3T3 L1 fibroblasts; Mus musculus) [µM] | also measured
1 | 135 | O=C(Nc1ccc2ccc(S(=O)(=O)Nc3cccc(S(=O)(=O)O)c3)cc2c1)Nc1ccc2ccc(S(=O)(=O)Nc3cccc(S(=O)(=O)O)c3)cc2c1 [Compound 13, 3-{[(7-{[N-(7-{[(3-sulfophenyl)amino]sulfonyl}-2-naphthyl)carbamoyl]amino}-2-naphthyl)sulfonyl]amino}benzenesulfonic acid disodium salt] | 20 | 1 |  | autophosphorylation of the insulin receptor in whole cells (human insulin receptor): increase of autophosphorylation; glucose uptake of cells (3T3 L1 fibroblasts; in the presence or absence of insulin (FIG. 3)): increase in glucose uptake of cells
2 | 106 | O=C(Nc1ccc2c(O)cc(S(=O)(=O)Nc3ccc(C(=O)O)cc3)cc2c1)Nc1ccc2c(O)cc(S(=O)(=O)Nc3ccc(C(=O)O)cc3)cc2c1 [Compound 29, 4-{[(7-{[N-(7-{[(4-carboxyphenyl)amino]sulfonyl}-5-hydroxy(2-naphthyl))carbamoyl]amino}-4-hydroxy-2-naphthyl)sulfonyl]amino}benzoic acid] | 18 | 6 | 3.2 | 
3 | 109 | COC(=O)c1cccc(NS(=O)(=O)c2cc(O)c3ccc(NC(=O)Nc4ccc5c(O)cc(S(=O)(=O)Nc6cccc(C(=O)OC)c6)cc5c4)cc3c2)c1 [Compound 41, methyl 3-({[4-hydroxy-7-({[5-hydroxy-7-({[3-(methoxycarbonyl)phenyl]amino}sulfonyl)(2-naphthyl)]amino}carbonylamino)-2-naphthyl]sulfonyl}amino)benzoate] | 20 | 4 | 32 | 
4 | 124 | O=C(Nc1ccc2c(O)cc(S(=O)(=O)Nc3cccc(C(=O)O)c3)cc2c1)Nc1ccc2c(O)cc(S(=O)(=O)Nc3cccc(C(=O)O)c3)cc2c1 [Compound 42, 3-{[(7-{[N-(7-{[(3-carboxyphenyl)amino]sulfonyl}-5-hydroxy(2-naphthyl))carbamoyl]amino}-4-hydroxy-2-naphthyl)sulfonyl]amino}benzoic acid] |  |  | 3.2 | 
5 | 171 | O=C(Nc1ccc2ccc(S(=O)(=O)Nc3cccnc3)cc2c1)Nc1ccc2ccc(S(=O)(=O)Nc3cccnc3)cc2c1 [Compound 77, N-{7-[(3-pyridylamino)sulfonyl](2-naphthyl)}({7-[(3-pyridylamino)sulfonyl](2-naphthyl)}amino)carboxamide] |  |  | 3.2 | 

Continued, molecule first:

Row | Structure (SMILES) | % Activity vs. Control [1] [%] | % Reduction in Blood Glucose (maximal reduction) (STZ/HFD rat) [%] | Time (h) at which maximal reduction in blood glucose occurred (STZ/HFD rat) [h] | EC (150% of vehicle control) (3T3 L1 fibroblasts; Mus musculus) [µM] | also measured
6 | O=C(Nc1ccc2ccc(S(=O)(=O)Nc3ccc(Cl)c(C(=O)O)c3)cc2c1)Nc1ccc2ccc(S(=O)(=O)Nc3ccc(Cl)c(C(=O)O)c3)cc2c1 [Compound 48, 5-{[(7-{[N-(7-{[(3-carboxy-4-chlorophenyl)amino]sulfonyl}(2-naphthyl))carbamoyl]amino}(2-naphthyl))sulfonyl]amino}-2-chlorobenzoic acid] |  | 24 | 2 | 3.2 | 
7 | NS(=O)(=O)c1ccc2ccc(NC(=O)Nc3ccc4ccc(S(N)(=O)=O)cc4c3)cc2c1 [Compound 89, N-(7-sulfamoyl(2-naphthyl))[(7-sulfamoyl(2-naphthyl))amino]carboxamide] | 104 |  |  | 3.2 | 
8 | O=C(Nc1ccc2c(O)cc(S(=O)(=O)Nc3ccc(Cl)c(S(=O)(=O)O)c3)cc2c1)Nc1ccc2c(O)cc(S(=O)(=O)Nc3ccc(Cl)c(S(=O)(=O)O)c3)cc2c1 [Compound 93, 2-chloro-5-{[(7-{[(7-{[(4-chloro-3-sulfophenyl)amino]sulfonyl}-5-hydroxy(2-naphthyl))amino]carbonylamino}-4-hydroxy(2-naphthyl))sulfonyl]amino}benzenesulfonic acid] |  | 25 | 4 | 3.2 | 
9 | CCOC(=O)COc1cc(S(=O)(=O)O)cc2cc(NC(=O)Nc3ccc4c(O)cc(S(=O)(=O)O)cc4c3)ccc12.N.N [Compound 94, 7-[({5-[(ethoxycarbonyl)methoxy]-7-sulfo(2-naphthyl)}amino)carbonylamino]-4-hydroxy-naphthalene-2-sulfonic acid, diammonium salt] | 279 |  |  |  | EC (150% of vehicle control) (3T3 L1 fibroblasts): 32 µM
10 | COc1cc(S(=O)(=O)O)cc2cc(NC(=O)Nc3ccc4c(O)cc(S(=O)(=O)O)cc4c3)ccc12 [Compound 98, 4-hydroxy-7-{[(5-methoxy-7-sulfo(2-naphthyl))amino]carbonylamino}naphthalene-2-sulfonic acid] | 166 |  |  | 32 | 
11 | COc1cc(S(=O)(=O)O)cc2cc(NC(=O)Nc3ccc4c(OC)cc(S(=O)(=O)O)cc4c3)ccc12 [Compound 99, 4-methoxy-7-{[(5-methoxy-7-sulfo(2-naphthyl))amino]carbonylamino}naphthalene-2-sulfonic acid] | 110 |  |  | 32 | 
12 | C=C1[C@@H](C)[C@H]2[C@H](Cc3ccccc3)NC(=O)[C@]23OC(=O)/C=C/[C@H](O)CCC[C@@H](C)C/C=C/[C@H]3[C@@H]1O [Cytochalasin B] |  |  |  |  | effect on stimulation of glucose transport (3T3 L1 adipocytes): inhibited the stimulation of glucose transport

From patent US7071231B2, “Naphthalene ureas as glucose uptake enhancers” (Telik, Inc., priority 1999, dated 2006)
